Series [1] deals with leukemic progenitors from BM samples of AML patients. Nature of the series: Colony forming assay (CFU-GM) with BM samples of AML patients. In kind it is cell-based, human. The note with it: TP53 WT AML samples (14 of 18), compared to vehicle control. The protocol: Ex vivo activity of Compound 1 was evaluated in normal and leukemic progenitors from BM samples of 25 AML patients using colony forming assays. […] The effect of Compound 1 on CK1α degradation, p53 accumulation, and activation is concentration- and time-dependent.

Series [2] deals with MV-4-11 AML xenograft model. Nature of the series: Single dose PK/PD and efficacy studies, MV-4-11 AML xenograft model. In kind it is in vivo, mice. The protocol:
(§1) The CK1α degradation activity and subsequent antitumor activity of Compound 1 in vivo was tested in two TP53 WT AML cell line-derived xenograft models. The depth and duration of CK1α degradation was dose-dependent.
Based on single dose pharmacokinetic (PK)/pharmacodynamics (PD) and efficacy studies with the MV-4-11 AML xenograft model, nearly 90% degradation of CK1α at 2 hours post-dose and 50% suppression through 16 hours a day was maintained when the tumor Compound 1 concentration was >0.1 μM. Maintenance of >0.1 μM Compound 1 in tumor, and this degree of CK1α degradation with daily dosing at 3 mg/kg, led to a 73-99% reduction in tumor burden with significant survival benefit.

In series [3] the test system is MV-4-11-luc disseminated AML xenograft. Briefly: MV-4-11-luc disseminated AML xenograft model, tumor burden and survival. In kind it is in vivo, mice. The protocol:
as §1
In a subsequent study, MV-4-11-luc disseminated AML xenografts were treated with 2 cycles of fixed doses and varying dosing duration (5/28 days, 7/28 days and 14/28 days). […] In Kaplan-Meier survival analysis following cessation dosing, the median survival of the vehicle treated animals was 45.5 days. […] The median survival of animals treated with Compound 1 with 2 cycles of 7/28-days at 10, 30, and 50 mg/kg was 67.5 (p<0.0001), 70 (p<0.0001), and 70 (p<0.0001) days, respectively. For the animals treated with 2 cycles of 14/28-days at 3, 10 and 30 mg/kg was 69.5 (p<0.0001), 94.5 (p<0.0001) and 152 (p<0.0001) days, respectively. For 30 mg/kg with 14/28-day cycle, 4/10 animals remained tumor free at the termination of the study on day 154.

Series [4] in a line: Cardiovascular assessment (ECG, heart rate) in conscious cynomolgus monkeys. Type of series: in vivo. The note with it: oral gavage, 0.03-0.3 mg/kg, Regimens 1 and 2, 1 hour postdose. The protocol:
Cardiovascular assessments (electrocardiograms [ECGs] and heart rates) were conducted in conscious cynomolgus monkeys as part of the Good Laboratory Practice (GLP)-compliant repeat dose toxicity study. In this study, Compound 1 was administered by oral gavage to Cynomolgus monkeys (5/sex/group) in Groups 1-5 at doses of 0 (0.5% (w/v) Methylcellulose, 0.25% (v/v) Tween 80 in 50 mM citrate buffer pH 3), 0.03, 0.1, 0.1 and 0.3 mg/kg, respectively, intermittently using 2 different dosing regimens. Groups 2 and 3 animals were dosed for 7 consecutive days in each 4-week cycle for 2 cycles (Regimen 1: on Days 1-7 and 29-35), whereas Groups 4 and 5 animals were dosed twice weekly for 4 weeks (Regimen 2: on Days 1, 4, 8, 11, 15, 18, 22 and 25). A combination of both dosing regimens (Days 1-7, 8, 11, 15, 18, 22, 25, and 29-35) was used for administration of the vehicle to the control animals. […] Qualitative (visual inspection) and quantitative assessments including heart rates and PR, QRS, RR, QT, and QTc intervals were performed. QTc was calculated using Bazett's formula.

A short description of series [5]: Plasma protein binding. In kind it is in vitro ADME, human and nonclinical species. An excerpt: There was no marked difference in free fraction among human, rat and monkey. Over the concentration ranges tested (25- to 50-fold range) in each species, there was <2-fold change in free fraction.
In series [6] the test system is CYP3A4/5. Briefly: Enzymatic metabolism (enzyme identification). In kind it is in vitro ADME. An excerpt: Compound 1 underwent non-enzymatic hydrolysis, oxidation, N-dealkylation, glucuronidation and a combination of these pathways in hepatocytes of human and animal species. Although there were quantitative differences in the formation of Compound 1 metabolites across species, qualitatively all metabolites formed in human hepatocytes were also observed in hepatocytes and plasma of rats and/or monkeys, the two species used for nonclinical safety testing. Following multiple oral administrations of Compound 1 to rats and monkeys, Compound 1 was the predominant component in plasma of both species. The metabolites observed in plasma were similar to those observed in hepatocytes.

The target of series [7] is T1, CYP1A2 (Homo sapiens, UniProt P05177).
T1 construct: In human liver microsomes; from tissue; host or cells: human liver microsomes
T1 sequence (P05177 whole entry): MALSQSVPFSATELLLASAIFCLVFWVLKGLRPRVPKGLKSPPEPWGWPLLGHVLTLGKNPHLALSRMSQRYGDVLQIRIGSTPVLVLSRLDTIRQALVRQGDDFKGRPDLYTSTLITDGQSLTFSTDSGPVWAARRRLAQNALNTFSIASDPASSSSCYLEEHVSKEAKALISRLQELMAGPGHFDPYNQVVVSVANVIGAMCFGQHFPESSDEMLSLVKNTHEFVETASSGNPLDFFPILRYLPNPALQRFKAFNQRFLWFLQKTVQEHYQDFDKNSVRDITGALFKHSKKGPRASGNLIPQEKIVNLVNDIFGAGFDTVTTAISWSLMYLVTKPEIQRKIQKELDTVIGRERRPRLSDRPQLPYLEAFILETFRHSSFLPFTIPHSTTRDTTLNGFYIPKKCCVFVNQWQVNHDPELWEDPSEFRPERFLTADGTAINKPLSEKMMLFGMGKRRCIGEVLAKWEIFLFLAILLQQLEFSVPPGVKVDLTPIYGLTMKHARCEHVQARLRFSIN
Briefly: CYP inhibition in human liver microsomes, CYP1A2. In kind it is in vitro ADME. Background: Liver microsomes are vesicles of endoplasmic reticulum, rich in cytochrome P450 enzymes.

Series [8] has as its system CYP2B6. Nature of the series: CYP induction in human hepatocyte culture, CYP2B6 mRNA. Type of series: in vitro ADME. The note with it: up to 50 μM for three consecutive days.
Series [9] has as its system human peripheral blood (PB) lymphocytes. Nature of the series: In vitro mammalian cell micronucleus test. The protocol:
Compound 1 was tested in the in vitro mammalian cell micronucleus test in human peripheral blood (PB) lymphocytes in the presence and absence of a metabolic activation system, Aroclor-induced rat liver fraction (S9), for 4 hours, and in the absence of S9 for 24 hours. The highest concentration tested was 481 μg/mL. Dimethyl sulfoxide (DMSO) was used as the solvent. […] In addition, 2 lower concentrations with appropriate concentration and cytotoxicity spacing were chosen for micronucleus scoring in each regime.

Results on 1 molecule are retold here after US20220387405A1, “METHODS OF TREATMENT WITH N-((R)-1-(3-CHLOROPYRIDIN-2-YL)-2,2,2-TRIFLUOROETHYL)-2-((S)-2,6-DIOXOPIPERIDIN-3-YL)-1-OXOISOINDOLINE-5-CARBOXAMIDE” (CELGENE CORPORATION, priority 2021, published 2022).

A word on the fraction unbound: it is free concentration divided by total concentration. A lower fraction unbound goes with little free substance.

With `O=C1CC[C@H](N2Cc3cc(C(=O)N[C@H](c4ncccc4Cl)C(F)(F)F)ccc3C2=O)C(=O)N1` [Compound 1, N-((R)-1-(3-chloropyridin-2-yl)-2,2,2-trifluoroethyl)-2-((S)-2,6-dioxopiperidin-3-yl)-1-oxoisoindoline-5-carboxamide], in series [1], the “samples with inhibited formation of CFU-GM colonies” value is given as 77.8%. The “degradation of CK1α” value in [2] (2 hours post-dose, tumor concentration >0.1 μM) is on record as approximately 90%. Moreover, the “CK1α degradation in AML xenograft tumors” value in series [2] (AML xenograft tumors) is recorded as “significantly degraded”. Besides, the “reduction in tumor burden” value in series [2] (daily dosing at 3 mg/kg) is 73-99%. Further, the “suppression of CK1α” value in series [2] (maintained through 16 hours a day, tumor concentration >0.1 μM) worked out at 50%. Also, the “animals remaining tumor free at termination of the study” value in series [3] (30 mg/kg, 14/28-day cycle, day 154) is given as 4/10. For the same molecule, the median survival in series [3] (2 cycles of 5/28-days at 50 mg/kg, vehicle 45.5 days) is 68.5 days; in [3] (2 cycles of 7/28-days at 10 mg/kg), 67.5 days; in series [3] (2 cycles of 7/28-days at 30 mg/kg), 70 days; in [3] (2 cycles of 7/28-days at 50 mg/kg), 70 days; in series [3] (2 cycles of 14/28-days at 3 mg/kg), 69.5 days; in series [3] (2 cycles of 14/28-days at 10 mg/kg), 94.5 days. This molecule registered a median survival in series [3] (2 cycles of 14/28-days at 30 mg/kg) of 152 days. For the same molecule, in series [3] (mice with disseminated MV-4-11 AML, dose-, schedule- and duration-dependent), the tumor burden entry is given as “significantly reduced”. In addition, the “effects on heart rate, PR, QRS, QT, and QTc intervals” value in series [4] is “no Compound 1 related effects”. The “change in free fraction” value in series [5] (over the concentration ranges tested (25- to 50-fold range) in each species) is on record as less than 2 fold. The molecule further yielded a fraction unbound in series [5] (plasma, human and nonclinical species) of 0.007 to 0.103. In series [6], the enzymatic metabolism entry was “primarily mediated by CYP3A4/5”. Further, the time-dependent inhibition result in series [7] (CYP1A2, 30-minute preincubation with NADPH) is recorded as “not a time-dependent inhibition”. The inhibitory effect in series [7] (human liver microsomes, CYP1A2) is listed as not above 25%. In series [8], the “mRNA expression of CYP2B6” value was “no dose-dependent increases”. The “proportion of micronucleated binucleate cells (MBC)” value in [9] (4 hours with and without S9, 24 hours without S9, compared with negative controls) is given as “did not cause any statistically significant increases”. The “cytotoxicity based on CBPI” value in series [9] (human, 24 h, 120 μg/mL) is listed as “approximately 55%”.
